The supplement of paper PMC10307832

Experiments:
Experiment in all cases: relative viability (nuclei count vs DMSO), 5 days (fraction); higher = more cells survive
[1] = test system: RERF-LC-KJ
Procedure, shortened: (§1)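 Relative viability is defined as nuclei in treated wells over nuclei in vehicle wells. Duplicate plates were run and medians reported. Lung cancer cell lines in 1536-well plates were dosed by pin tool one day after seeding, with one drug or with a fixed anchor-drug dose plus five library-drug doses (not always all listed) in √10 steps, and nuclei were counted after 5 days.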

[2] = test system: HCC-78
Procedure, shortened: as §1

[3] = test system: NCI-H2405
Procedure, shortened: as §1

[4] = test system: EMC-BAC-2
Procedure, shortened: as §1

[5] = test system: EKVX
Procedure, shortened: as §1

[6] = test system: ChaGo-K-1
Procedure, shortened: as §1

[7] = test system: NCI-H23
Procedure, shortened: as §1

[8] = test system: SW 1573
Procedure, shortened: as §1

[9] = test system: NCI-H1975
Procedure, shortened: as §1

[10] = test system: NCI-H1563
Procedure, shortened: as §1

[11] = test system: LCLC-103H
Procedure, shortened: as §1

[12] = test system: LU99A
Procedure, shortened: as §1

[13] = test system: NCI-H2126
Procedure, shortened: as §1

[14] = test system: LK-2
Procedure, shortened: as §1

[15] = test system: NCI-H322M
Procedure, shortened: as §1

[16] = test system: PC-14
Procedure, shortened: as §1

[17] = test system: EPLC-272H
Procedure, shortened: as §1

[18] = test system: LXF-289
Procedure, shortened: as §1

[19] = test system: SK-LU-1
Procedure, shortened: as §1

[20] = test system: NCI-H1666
Procedure, shortened: as §1

[21] = test system: HCC-827
Procedure, shortened: as §1

Compound: CCN(CC)CCCCNc1ncc2cc(-c3cc(OC)cc(OC)c3)c(NC(=O)NC(C)(C)C)nc2n1 + CS(=O)(=O)N1CCN(Cc2cc3nc(-c4cccc5[nH]ncc45)nc(N4CCOCC4)c3s2)CC1 [Pictilisib] (partner 1 µM)
- relative viability ([1]; first compound 0.01 µM): 0.695
- relative viability ([1]; first compound 0.03162 µM): 0.639
- relative viability ([1]; first compound 0.1 µM): 0.528
- relative viability ([1]; first compound 0.3162 µM): 0.671
- relative viability ([1]; first compound 1 µM): 0.526
- relative viability ([2]; first compound 0.03162 µM): 0.189
- relative viability ([2]; first compound 0.1 µM): 0.224
- relative viability ([2]; first compound 0.3162 µM): 0.218
- relative viability ([2]; first compound 1 µM): 0.185
- relative viability ([3]; first compound 0.01 µM): 0.361
- relative viability ([3]; first compound 0.03162 µM): 0.412
- relative viability ([3]; first compound 0.1 µM): 0.586
- relative viability ([3]; first compound 0.3162 µM): 0.531
- relative viability ([3]; first compound 1 µM): 0.404
- relative viability ([4]; first compound 0.01 µM): 0.581
- relative viability ([4]; first compound 0.03162 µM): 0.507
- relative viability ([4]; first compound 0.1 µM): 0.546
- relative viability ([4]; first compound 0.3162 µM): 0.574
- relative viability ([4]; first compound 1 µM): 0.456
- relative viability ([5]; first compound 0.01 µM): 0.437
- relative viability ([5]; first compound 0.03162 µM): 0.455
- relative viability ([5]; first compound 0.1 µM): 0.42
- relative viability ([5]; first compound 0.3162 µM): 0.407
- relative viability ([5]; first compound 1 µM): 0.465
- relative viability ([6]; first compound 0.01 µM): 0.551
- relative viability ([6]; first compound 0.03162 µM): 0.559
- relative viability ([6]; first compound 0.1 µM): 0.95
- relative viability ([6]; first compound 0.3162 µM): 0.98
- relative viability ([6]; first compound 1 µM): 0.437
- relative viability ([7]; first compound 0.01 µM): 0.414
- relative viability ([7]; first compound 0.03162 µM): 0.411
- relative viability ([7]; first compound 0.1 µM): 0.463
- relative viability ([7]; first compound 0.3162 µM): 0.37
- relative viability ([7]; first compound 1 µM): 0.435
- relative viability ([8]; first compound 0.01 µM): 0.528
- relative viability ([8]; first compound 0.03162 µM): 0.48
- relative viability ([8]; first compound 0.1 µM): 0.615
- relative viability ([8]; first compound 0.3162 µM): 0.66
- relative viability ([8]; first compound 1 µM): 0.507
- relative viability ([9]; first compound 0.01 µM): 0.28
- relative viability ([9]; first compound 0.03162 µM): 0.277
- relative viability ([9]; first compound 0.1 µM): 0.311
- relative viability ([9]; first compound 0.3162 µM): 0.322
- relative viability ([9]; first compound 1 µM): 0.255
- relative viability ([10]; first compound 0.01 µM): 0.63
- relative viability ([10]; first compound 0.03162 µM): 0.636
- relative viability ([10]; first compound 0.1 µM): 0.634
- relative viability ([10]; first compound 0.3162 µM): 0.529
- relative viability ([10]; first compound 1 µM): 0.425
- relative viability ([11]; first compound 0.01 µM): 0.551
- relative viability ([11]; first compound 0.03162 µM): 0.661
- relative viability ([11]; first compound 0.1 µM): 0.595
- relative viability ([11]; first compound 0.3162 µM): 0.553
- relative viability ([11]; first compound 1 µM): 0.443
- relative viability ([12]; first compound 0.01 µM): 0.31
- relative viability ([12]; first compound 0.03162 µM): 0.396
- relative viability ([12]; first compound 0.1 µM): 0.345
- relative viability ([12]; first compound 0.3162 µM): 0.313
- relative viability ([12]; first compound 1 µM): 0.277
- relative viability ([13]; first compound 0.01 µM): 0.498
- relative viability ([13]; first compound 0.03162 µM): 0.489
- relative viability ([13]; first compound 0.1 µM): 0.508
- relative viability ([13]; first compound 0.3162 µM): 0.523
- relative viability ([13]; first compound 1 µM): 0.477
- relative viability ([14]; first compound 0.01 µM): 0.624
- relative viability ([14]; first compound 0.03162 µM): 0.438
- relative viability ([14]; first compound 0.1 µM): 0.425
- relative viability ([14]; first compound 0.3162 µM): 0.388
- relative viability ([14]; first compound 1 µM): 0.263
- relative viability ([15]; first compound 0.01 µM): 0.573
- relative viability ([15]; first compound 0.03162 µM): 0.47
- relative viability ([15]; first compound 0.1 µM): 0.499
- relative viability ([15]; first compound 0.3162 µM): 0.566
- relative viability ([15]; first compound 1 µM): 0.456
- relative viability ([16]; first compound 0.01 µM): 0.702
- relative viability ([16]; first compound 0.03162 µM): 0.624
- relative viability ([16]; first compound 0.1 µM): 0.658
- relative viability ([16]; first compound 0.3162 µM): 0.807
- relative viability ([16]; first compound 1 µM): 0.509
- relative viability ([17]; first compound 0.01 µM): 0.288
- relative viability ([17]; first compound 0.1 µM): 0.33
- relative viability ([17]; first compound 0.3162 µM): 0.298
- relative viability ([17]; first compound 1 µM): 0.184
- relative viability ([18]; first compound 0.01 µM): 0.769
- relative viability ([18]; first compound 0.03162 µM): 0.874
- relative viability ([18]; first compound 0.1 µM): 0.792
- relative viability ([18]; first compound 0.3162 µM): 0.676
- relative viability ([18]; first compound 1 µM): 0.386
- relative viability ([19]; first compound 0.01 µM): 0.483
- relative viability ([19]; first compound 0.03162 µM): 0.427
- relative viability ([19]; first compound 0.1 µM): 0.526
- relative viability ([19]; first compound 0.3162 µM): 0.527
- relative viability ([19]; first compound 1 µM): 0.393
- relative viability ([20]; first compound 0.01 µM): 0.363
- relative viability ([20]; first compound 0.03162 µM): 0.405
- relative viability ([20]; first compound 0.1 µM): 0.484
- relative viability ([20]; first compound 0.3162 µM): 0.595
- relative viability ([20]; first compound 1 µM): 0.367
- relative viability ([21]; first compound 0.01 µM): 1.03
- relative viability ([21]; first compound 0.03162 µM): 0.992
- relative viability ([21]; first compound 0.1 µM): 0.886
- relative viability ([21]; first compound 0.3162 µM): 1.06
- relative viability ([21]; first compound 1 µM): 1.02

Compound: COc1nc(C)cnc1NS(=O)(=O)c1cccnc1-c1ccc(-c2nnco2)cc1 [Zibotentan] + CC(C)C[C@H](NC(=O)[C@H](Cc1ccccc1)NC(=O)c1cnccn1)B(O)O [Bortezomib] (partner 0.002 µM)
- relative viability ([1]; first compound 0.08 µM): 1.04
- relative viability ([1]; first compound 0.253 µM): 1.1
- relative viability ([1]; first compound 0.8 µM): 1.09
- relative viability ([1]; first compound 2.53 µM): 0.998
- relative viability ([2]; first compound 0.08 µM): 0.473
- relative viability ([2]; first compound 0.253 µM): 0.443
- relative viability ([2]; first compound 0.8 µM): 0.563
- relative viability ([2]; first compound 2.53 µM): 0.485
- relative viability ([3]; first compound 0.08 µM): 1.02
- relative viability ([3]; first compound 0.253 µM): 1.05
- relative viability ([3]; first compound 0.8 µM): 0.991
- relative viability ([3]; first compound 2.53 µM): 0.963
- relative viability ([4]; first compound 0.08 µM): 1.18
- relative viability ([4]; first compound 0.253 µM): 1.04
- relative viability ([4]; first compound 0.8 µM): 1.07
- relative viability ([4]; first compound 2.53 µM): 1.09
- relative viability ([5]; first compound 0.08 µM): 1.13
- relative viability ([5]; first compound 0.253 µM): 1.17
- relative viability ([5]; first compound 0.8 µM): 1.11
- relative viability ([5]; first compound 2.53 µM): 1.07
- relative viability ([6]; first compound 0.08 µM): 0.956
- relative viability ([6]; first compound 0.8 µM): 0.977
- relative viability ([6]; first compound 2.53 µM): 0.99
- relative viability ([7]; first compound 0.08 µM): 1.25
- relative viability ([7]; first compound 0.253 µM): 1.1
- relative viability ([7]; first compound 0.8 µM): 0.999
- relative viability ([7]; first compound 2.53 µM): 1.29
- relative viability ([8]; first compound 0.08 µM): 1
- relative viability ([8]; first compound 0.253 µM): 0.847
- relative viability ([8]; first compound 0.8 µM): 1.05
- relative viability ([8]; first compound 2.53 µM): 1.28
- relative viability ([9]; first compound 0.08 µM): 0.378
- relative viability ([9]; first compound 0.253 µM): 0.293
- relative viability ([9]; first compound 0.8 µM): 0.411
- relative viability ([9]; first compound 2.53 µM): 0.419
- relative viability ([10]; first compound 0.08 µM): 0.932
- relative viability ([10]; first compound 0.253 µM): 0.648
- relative viability ([10]; first compound 0.8 µM): 0.881
- relative viability ([10]; first compound 2.53 µM): 0.905
- relative viability ([11]; first compound 0.08 µM): 1.02
- relative viability ([11]; first compound 0.253 µM): 1
- relative viability ([11]; first compound 0.8 µM): 1.27
- relative viability ([11]; first compound 2.53 µM): 1.04
- relative viability ([12]; first compound 0.08 µM): 1.3
- relative viability ([12]; first compound 0.253 µM): 1.13
- relative viability ([12]; first compound 0.8 µM): 1.23
- relative viability ([12]; first compound 2.53 µM): 1.17
- relative viability ([13]; first compound 0.08 µM): 1.19
- relative viability ([13]; first compound 0.253 µM): 1.15
- relative viability ([13]; first compound 0.8 µM): 1.15
- relative viability ([13]; first compound 2.53 µM): 1.16
- relative viability ([15]; first compound 0.08 µM): 1.05
- relative viability ([15]; first compound 0.253 µM): 1.22
- relative viability ([15]; first compound 0.8 µM): 1.18
- relative viability ([15]; first compound 2.53 µM): 1.34
- relative viability ([16]; first compound 0.08 µM): 0.872
- relative viability ([16]; first compound 0.253 µM): 0.922
- relative viability ([16]; first compound 0.8 µM): 0.897
- relative viability ([16]; first compound 2.53 µM): 0.861
- relative viability ([17]; first compound 0.08 µM): 1.04
- relative viability ([17]; first compound 0.253 µM): 0.906
- relative viability ([17]; first compound 0.8 µM): 0.843
- relative viability ([17]; first compound 2.53 µM): 0.862
- relative viability ([18]; first compound 0.08 µM): 1.05
- relative viability ([18]; first compound 0.253 µM): 0.993
- relative viability ([18]; first compound 0.8 µM): 1.05
- relative viability ([18]; first compound 2.53 µM): 0.989
- relative viability ([19]; first compound 0.08 µM): 1.17
- relative viability ([19]; first compound 0.253 µM): 0.988
- relative viability ([19]; first compound 0.8 µM): 1.08
- relative viability ([19]; first compound 2.53 µM): 1.11
- relative viability ([20]; first compound 0.08 µM): 0.76
- relative viability ([20]; first compound 0.253 µM): 0.599
- relative viability ([20]; first compound 0.8 µM): 0.8
- relative viability ([20]; first compound 2.53 µM): 1
- relative viability ([21]; first compound 0.08 µM): 1.08
- relative viability ([21]; first compound 0.253 µM): 0.994
- relative viability ([21]; first compound 0.8 µM): 1.05
- relative viability ([21]; first compound 2.53 µM): 1.04
